Test [1] deals with Arabidopsis thaliana Columbia-0. The test can be described thus: Root hair number and length quantification, Arabidopsis vertical plate. In kind it is in vivo. As for the experimental part: (§1) All Arabidopsis plant experiments were performed using the Arabidopsis thaliana Columbia-0 background. The Arabidopsis pSPX1::GUS line is described in the […] 2008, 54: 965-975. For rice, the cultivar Nipponbare was used. For maize, the cultivars DKC 2931 and 8104 were used for regular pot experiments and sand-based pot experiments, respectively. For soybean, the cultivar Primus was used. […] The medium was solidified due to the addition of 0.6% Gelrite, unless stated otherwise. In case of vertical plates (root length and root hair measurements), the medium was supplied with 0.5% of sucrose and 1 μM (low phosphate, 1 μM KH2PO4, 9.9 mM KCl), 10 μM (low phosphate 10 μM KH2PO4, 9.9 mM KCl) or 1.25 mM KH2PO4 (high phosphate). Arabidopsis seeds were stratified for 2 days at 4° C. before germination. Seedlings were germinated in climate-controlled growth chambers at 22° C. under continuous light ([…] m^−2 s^−1). Husked rice seeds were germinated on wetted Whatman paper for 2 days at 37° C. and then transferred to Sterivent boxes or square Petri dishes with solid medium. Maize and soybean seeds were wetted 24 hours at room temperature prior to sowing in pots.
Roots were imaged using a stereomicroscope or a VHX-6000. Number and length of the root hairs parallel to the medium surface was determined at 4 to 6 mm above the root meristem. Root hair length was measured using the ImageJ software.

The test system is the same in test [2]. Put plainly: Arabidopsis horizontal plate leaf area assay. The format is in vivo. As for the experimental part:
as §1
Arabidopsis primary root growth experiments were done on MS1/2 on vertical standing plates and roots were measured 11 days after germination. Roots were imaged using a flatbed scanner (EPSON Expression 11000XL) and root length was measured using ImageJ software. Arabidopsis shoot biomass was determined in 11 days after germination and growth on vertical standing plates with modMS. Arabidopsis leaf area was measured 21 days after germination on horizontal plates with modMS medium. Plates were scanned from the top using a flatbed scanner (EPSON Expression 11000XL) and the visible leaf area was measured using ImageJ software. Rice plate experiments used vertically standing Petri dishes containing MS1/2 medium (low phosphate—0.001 mM) solidified with 0.8% washed agar. Plant height was measured 11 days after germination. Rice box experiments used modMS medium and a low phosphate condition of 0.025 mM phosphate. Plant height was measured 13 days after germination. All growth experiments occurred with 10 μM of compound and in low phosphate conditions, unless stated otherwise. Controls always received the same DMSO concentration.

Another test concerns maize cultivar DKC 2931. The test can be described thus: Regular maize pot experiment (potting soil). In kind it is in vivo. Conditions: low phosphate, 10 μM compound. As for the experimental part:
as §1
(§2) Regular Arabidopsis, soybean and maize pot experiments used an unfertilized potting soil, which was supplemented at the start of the experiment with 50 ml H2O containing 0.25 g/l NH4NO3 and 0.44 g/l (high phosphate) or no (maize and soybean) or 0.11 g/l KH2PO (Arabidopsis) for low phosphate conditions. For the sand-based maize pot experiment, sand was supplemented with 50 ml H2O containing 0.25 g/l NH4NO3 and 0.38 g/l (high phosphate) or 0.02 g/l (low phosphate) KH2PO4. Potassium was balanced via addition of KCl. Compound concentration was 10 μM, calculated based on the total water content after watering, and was added at the start of the experiment (Arabidopsis) or once a week (maize). Indexed chlorophyll contents were received via a SPAD 502 Plus Chlorophyll Meter. All parameters in the sand experiment, except the rate of leaf 4 (measured the first 4 days after emergence), were measured 19 days after sowing. Measurements in the pot experiments with potting soil were done after 4 weeks of growth, except for leaf 5, which was measured at 26 days. The long term maize pot experiment was performed on the automated Phenovision platform (see Mertens et al, 2021, https://doi.org/10.3389/fpls.2021.640914) with maize cultivars B104 and DKC2931. End point measurements occurred after 90 days (B104) or 70 days (DKC2931). Plants were grown on an unfertilized potting soil, which was fertilized bi-weekly with 50 mL modified Hoagland solution (2.5× concentrated; but with 0.25 mM KH2PO4).

The test system of the next test is maize cultivar 8104. The test can be described thus: Sand-based maize pot experiment. In kind it is in vivo. Conditions: low phosphate, 10 μM compound. As for the experimental part:
as §1, §2

The test system of test [3] is rice cultivar Nipponbare. The test can be described thus: Rice box experiment (plant height). In kind it is in vivo. Particulars: low phosphate 0.025 mM, 10 μM compound, 13 days after germination. As for the experimental part: (§3) All Arabidopsis plant experiments were performed using the Arabidopsis thaliana Columbia-0 background. The Arabidopsis pSPX1::GUS line is described in the […] 2008, 54: 965-975. For rice, the cultivar Nipponbare was used. For maize, the cultivars DKC 2931 and 8104 were used for regular pot experiments and sand-based pot experiments, respectively. For soybean, the cultivar Primus was used. […] The medium was solidified due to the addition of 0.6% Gelrite, unless stated otherwise. […]
(§4) Arabidopsis primary root growth experiments were done on MS1/2 on vertical standing plates and roots were measured 11 days after germination. Roots were imaged using a flatbed scanner (EPSON Expression 11000XL) and root length was measured using ImageJ software. Arabidopsis shoot biomass was determined in 11 days after germination and growth on vertical standing plates with modMS. Arabidopsis leaf area was measured 21 days after germination on horizontal plates with modMS medium. Plates were scanned from the top using a flatbed scanner (EPSON Expression 11000XL) and the visible leaf area was measured using ImageJ software. […] Plant height was measured 11 days after germination. […] Plant height was measured 13 days after germination. […]

In test [4] the test system is SPX1 phosphate starvation biomarker (pSPX1::GUS). Put plainly: Chemical activity assessment: SPX1 suppression in Arabidopsis pSPX1::GUS reporter line (GUS stained area). In kind it is in vivo, Arabidopsis thaliana. As for the experimental part: as §1
For the chemical activity assessment 3 to 8 seeds per well of Arabidopsis pSPX1::GUS line were sown in 96-well plates containing 150 μl of low phosphate modMS liquid medium containing 1% of sucrose. Compounds were added in 50 μM concentration, starting from a 5 mM stock of compounds solved in DMSO. Different chemical substances were separately added to different wells. Per plate, 16 control wells were used, 8 containing only the low phosphate medium and 1% DMSO, and 8 containing high phosphate medium and 1% DMSO. 7 days after germination, plates were scanned using a flatbed scanner (EPSON Expression 11000XL) and analyzed for leaf size. After scanning, the growth medium was replaced by GUS staining solution (see Plant Mol. Biol. Rep. 1994, 12: 37-42 for details) and incubated for 1.5 hours at 37° C. The plates were scanned a second time and analyzed for GUS signal area. Measurements of both leaf area and GUS signal area were conducted by filtering out and measure the green and blue signal, respectively using ImageJ software. If the green leaf area was 50% or less than the control, samples were omitted. Additionally, all results were visually screened for leaf size and GUS signal.
To identify new substances that suppress the expression of the SPX1 phosphate starvation biomarker, we used an Arabidopsis SPX1 reporter line pSPX1::GUS. […] This observation was confirmed in two experimental repeats.

Test [5] concerns rice cultivar Nipponbare. Put plainly: Rice plate experiment (plant height). In kind it is in vivo. Conditions: low phosphate 0.001 mM, 10 μM compound, 11 days after germination. As for the experimental part:
as §3, §4

[6] abbreviates: Arabidopsis vertical plate, high phosphate.

Entries after “also recorded” stand apart in the source; their conditions may differ.

Take `CCN(CCCNc1ncnc2nc(N)ccc12)c1ccccc1` [Example 1]: in test [1] (Arabidopsis thaliana, 1 μM compound, read-out: Total root hair length per root (in % compared to the control)), the activity at 1 µM stood at 749%. Besides, in test [1] (setting [6]), the “Average root hair length per root in high phosphate conditions” value is 0.26 mm, the “Root hair number in high phosphate conditions (one plane in 2 mm region)” value turned out to be 9 and the “Total root hair length per root in high phosphate conditions” value is recorded as 0.26 cm. This compound also returned a Leaf area in test [2] (Arabidopsis horizontal plate, low phosphate, 10 μM compound, 21 days after germination (Table 1)) of 94 mm^2. Also, the “Leaf area in suboptimal phosphate conditions” value in test [2] (Arabidopsis horizontal plate, suboptimal phosphate (600 μM), 10 μM compound) amounted to 120 mm^2. Moreover, the Average leaf area in test [2] (Arabidopsis horizontal plates (Table 4), control without compound 63) is 66 mm^2. Moreover, in the test on maize cultivar DKC 2931 (4 weeks), the Plant height was determined as 59 cm and the Shoot weight is 4 g. Besides, in the test with maize cultivar DKC 2931 (26 days), the “Leaf 5” value was determined as 43 cm. In the test with maize cultivar 8104 (19 days after sowing), the Crown root number came out at 8 and the Plant height worked out at 27 cm. The Indexed chlorophyll content with maize cultivar 8104 (SPAD meter, 19 days after sowing) came out at 31. Moreover, the “Growth rate of leaf 4” value with maize cultivar 8104 (first 4 days after emergence) is listed as 2.64 cm/day. In addition, the Plant height in the test with rice cultivar Nipponbare [3] is given as 4.1 cm. The “GUS (SPX1) stained area normalized to the number of seeds” value in test [4] (50 μM compound, low phosphate modMS liquid medium, 96-well, 7 days after germination, low phosphate control of same plate) was 0.3 pixels. The “Suppression of the SPX1 biomarker (in words)” value in test [4] (low phosphate, 7 days of growth, GUS staining, listed as compound 17) is given as “practically completely suppressed the SPX1 biomarker; also recorded: strongest suppression of SPX1”. The compound further registered a Plant height in the test on rice cultivar Nipponbare [5] of 15 cm.

Values taken from patent US20240306641A1, “P-BOOSTER” (EUROCHEM ANTWERPEN, priority 2021, published 2024).
